Test results taken from ChEMBL document CHEMBL3085722, “Stereochemical assignment of the fungal metabolites pestalotiopsones D and E through enantiopure synthesis” (J Nat Prod, 2013).
Converted amounts (≈) assume the structure as drawn.

What was measured:
Assay type in all cases: functional, organism-based
Escherichia coli = test: Antibacterial activity against Escherichia coli after 18 hrs by turbidity assay
[1] = tested on: Mycolicibacterium smegmatis; test: Antibacterial activity against Mycobacterium smegmatis after 18 hrs by turbidity assay
Pseudomonas aeruginosa = test: Antibacterial activity against Pseudomonas aeruginosa after 18 hrs by turbidity assay
[2] = tested on: Staphylococcus epidermidis; test: Antibacterial activity against Staphylococcus epidermidis after 18 hrs by turbidity assay

Compound | MIC (Escherichia coli) [µg/mL] | MIC [1] [µg/mL] | MIC (Pseudomonas aeruginosa) [µg/mL] | MIC [2] [µg/mL] | IC50 (Escherichia coli) [µg/mL] | IC50 [1] [µg/mL] | IC50 (Pseudomonas aeruginosa) [µg/mL] | IC50 [2] [µg/mL]
COC(=O)Cc1cc(OC)cc2oc(CCCCC[C@@H](C)OC(C)=O)cc(=O)c12 | > 500 | > 500 | > 500 | > 500 |  |  |  | 
CCOC(=O)Cc1cc(O)cc2oc(CCCCC[C@@H](C)O)cc(=O)c12 | > 500 | > 500 | > 500 | > 500 |  |  |  | 
COC(=O)Cc1cc(O)cc2oc(CCCCC[C@@H](C)O)cc(=O)c12 | > 500 | > 500 | > 500 | > 500 |  |  |  | 
COC(=O)Cc1cc(O)cc2oc(CCCCC[C@H](C)O)cc(=O)c12 | > 500 | > 500 | > 500 | > 500 | > 500 | > 500 | > 500 | > 500
CCOC(=O)Cc1cc(O)cc2oc(CCCCC[C@H](C)O)cc(=O)c12 | > 500 | > 500 | > 500 | > 500 | > 500 | 484 (≈ 1340 µM) | 440 (≈ 1210 µM) | > 500
COC(=O)Cc1cc(OC)cc2oc(CCCCC[C@H](C)OC(C)=O)cc(=O)c12 | > 500 | > 500 | > 500 | > 500 | > 500 | > 500 | 465 (≈ 1150 µM) | > 500
COC(=O)Cc1cc(OC)cc2c1C(=O)CC(CCCCC[C@@H](C)OC(C)=O)O2 (mixture of isomers) | > 500 | > 500 | > 500 | > 500 |  |  |  | 
COC(=O)Cc1cc(OC)cc2c1C(=O)CC(CCCCC[C@H](C)OC(C)=O)O2 (mixture of isomers) | > 500 | > 500 | > 500 | > 500 | > 500 | 492 | 445 | > 500
NC[C@H]1O[C@H](O[C@H]2[C@H](O)[C@@H](O[C@H]3O[C@H](CO)[C@@H](O)[C@H](N)[C@H]3O)[C@H](N)C[C@@H]2N)[C@H](O)[C@@H](O)[C@@H]1O [KANAMYCIN] |  |  |  |  | < 1 | < 1 | 209 (≈ 431 µM) | 90 (≈ 186 µM)
